Test results as given in ChEMBL document CHEMBL3769343, “Spiromastilactones: A new class of influenza virus inhibitors from deep-sea fungus” (Eur J Med Chem, 2016).

Key:
Assay type in all cases: functional, organism-based
Influenza A virus [1] = assay: Antiviral activity against amantadine-resistant influenza A virus JX/312 (H3N2) infected in dog MDCK cells assessed as inhibition of virus induced cytopathic effect after 40 hrs by Cell-Titer-Glo assay
Influenza A virus [2] = assay: Antiviral activity against amantadine-resistant influenza A virus HN/1222 (H3N2) infected in dog MDCK cells assessed as inhibition of virus induced cytopathic effect after 40 hrs by Cell-Titer-Glo assay
Influenza A virus [3] = assay: Antiviral activity against oseltamivir-resistant influenza A virus LN/1109 (H1N1) infected in dog MDCK cells assessed as inhibition of virus induced cytopathic effect after 40 hrs by Cell-Titer-Glo assay

| SMILES | EC50 (Influenza A virus [1]) [µM] | EC50 (Influenza A virus [2]) [µM] | EC50 (Influenza A virus [3]) [µM] |
| --- | --- | --- | --- |
| NC12CC3CC(CC(C3)C1)C2 [AMANTADINE] | 4.28 | > 20.5 | > 200 |
| NC(=O)c1ncn([C@@H]2O[C@H](CO)[C@@H](O)[C@H]2O)n1 [RIBAVIRIN] | 1.43 | 3.56 | 1.05 |
| CCCc1c(Cl)c(O)cc(OC)c1Oc1c(Cl)c(O)c(Cl)c2c1C(=O)O[C@@H]2CC | 35.3 | 38.5 | 33.5 |
| CCOC(=O)C1=C[C@@H](OC(CC)CC)[C@H](NC(C)=O)[C@@H](N)C1 [OSELTAMIVIR] | 9.75 | > 200 | 0.82 |
